Measured values: patent US20240285500A1, “HAIR GROWTH AGENT” (ADJUVANT HOLDINGS CO., LTD., priority 2021, published 2024)

How the values were obtained:
[1] = test system: VEGF gene expression in human dermal papilla cells; assay: Evaluation of human dermal papilla cell VEGF gene expression (real-time PCR); format: cell-based; settings: 72 hours
Method: Exemplary Test 1: Evaluation of Human Dermal Papilla Cell VEGF Gene Expression
The VEGF gene is expressed in dermal papilla cells, and contributes to expression of such effects as increase in hair shaft diameter and improving maximum hair shaft length and improving hair shaft elongation rate and hair shaft growth promotion at head hair, beard, eyebrows, and/or eyelashes. Human dermal papilla cells were therefore used, and evaluation was carried out with respect to increase in VEGF gene expression for the respective components.
Human dermal papilla cells (Catalog No. CA60205a; derived from person; Toyobo Co., Ltd. (Japan)) were purchased, testing and evaluation being carried out with maintenance and culture of cells being performed as described in the protocol. […]
A 24-well plate was seeded with human dermal papilla cells so as to obtain 6×10^3 thereof per well. […] The GAPDH gene was used as an internal standard, the amount of VEGF gene expression being calculated relative to the negative control group. […]

[2] = test system: vascular endothelial growth factor (VEGF) expression in human dermal papilla cells; settings: cited from earlier work

CCCCCCCCCCCCCC[C@@H](O)[C@@H](O)[C@@H](N)CO [Working Example 1, phytosphingosine]
change in amount of expression of the VEGF gene as compared with the control group ([1]; vs control group at which nothing had been added, GAPDH internal standard, FIG. 1): increase in dosage-dependent fashion in the amount of expression of the VEGF gene

Nc1ncnc2c1ncn2[C@@H]1O[C@H](CO)[C@@H](O)[C@H]1O [adenosine]
expression of vascular endothelial growth factor (VEGF) [2]: promotes expression of vascular endothelial growth factor (VEGF)

CCCCCCCCCCCCCC[C@@H](O)[C@@H](O)[C@@H](N)CO [phytosphingosine]
amount of expression of the VEGF gene compared with Comparative Example 1 ([1]; increased amount of phytosphingosine vs Comparative Example 1, FIG. 1): significantly greater
